Calls of active or inactive are those of the source. The calls are words filed in the database; no cut-off is given here.
Tests used:
[1] = Antioxidant activity assessed as inhibition of AAPH-induced lipid peroxidation at 0.1 mM; format: functional
[2] = tested on: Radical scavenging activity; experiment: Antioxidant activity assessed as DPPH radical scavenging activity; format: functional
[3] = tested on: Glycine max; experiment: Inhibition of soybean lipoxygenase
[4] = tested on: Radical scavenging activity; experiment: Antioxidant activity assessed as DPPH radical scavenging activity at 0.05 mM after 60 mins; format: functional
[5] = tested on: Radical scavenging activity; experiment: Antioxidant activity assessed as DPPH radical scavenging activity at 0.1 mM after 60 mins; format: functional
[6] = tested on: Radical scavenging activity; experiment: Antioxidant activity assessed as DPPH radical scavenging activity at 0.1 mM after 20 mins; format: functional
[7] = tested on: Radical scavenging activity; experiment: Antioxidant activity assessed as DPPH radical scavenging activity at 0.05 mM after 20 mins; format: functional
[8] = tested on: MCF7; experiment: Cytostatic activity against human MCF7 cells; format: functional, cell-based
[9] = tested on: NCI-H460; experiment: Cytostatic activity against human H460 cells; format: functional, cell-based
[10] = tested on: MCF7; experiment: Antiproliferative activity against human MCF7 cells at 100 uM after 24 hrs; format: functional; conditions: MCF7, 24 h
[11] = tested on: SW-620; experiment: Cytostatic activity against human SW620 cells; format: functional, cell-based
[12] = tested on: HCT-116; experiment: Cytostatic activity against human HCT116 cells; format: functional, cell-based
[13] = tested on: MOLT-4; experiment: Cytostatic activity against human MOLT4 cells; format: functional, cell-based

| SMILES | Inhibition [1] | Activity [2] | inhibition [3] | Activity [4] | Activity [5] | Activity [6] | Activity [7] | IC50 [8] | IC50 [9] | inhibition at 100 µM [10] | IC50 [11] | INH [3] | IC50 [12] | IC50 [13] | IC50 [1] |
| --- | --- | --- | --- | --- | --- | --- | --- | --- | --- | --- | --- | --- | --- | --- | --- |
| COc1cc(NC(C)CCCNC(=O)NC2CCCCC2)c2ncccc2c1 (stereo not given) | 99% | Dose-dependent effect | inactive | 16.3% | 25% | 27.4% | 28.9% |  |  |  |  |  |  |  |  |
| COc1cc(NC(C)CCCN)c2ncccc2c1 (stereo not given) [PRIMAQUINE] | 45% |  |  | 19% | 21.9% | 18.1% | 17.2% | 28 µM | 30 µM | 20% | ≥ 100 µM | 74 µM | 20 µM |  |  |
| COc1cc(NC(C)CCCNC(=O)N(C2CCCCC2)C2CCCCC2)c2ncccc2c1 (stereo not given) | 96% | Dose-dependent effect |  | 28.8% | 42.9% | 42.9% | 3.9% |  |  |  |  | 320 µM |  |  |  |
| CCOC(=O)NCCCC(C)Nc1cc(OC)cc2cccnc12 (stereo not given) | 87% | Dose-dependent effect | inactive | 8.5% | 31% | inactive | 10.8% | 26 µM | 38 µM |  | 45 µM |  | 28 µM | 34 µM |  |
| COc1cc(NC(C)CCCNC(=O)n2nnc3ccccc32)c2ncccc2c1 (stereo not given) [PRIMAQUINE BENZOTRIAZOLIDE] |  | Dose-dependent effect |  | 20% | 73.8% | 16.7% | 18.4% |  |  |  |  | 260 µM |  |  | Not Active |
| NC(=O)NO [HYDROXYUREA] |  |  |  |  |  |  |  | > 100 µM | > 100 µM |  | > 100 µM |  | 223 µM | > 100 µM |  |
| COc1cc(NC(C)CCCNC(=O)NC2CCCC2)c2ncccc2c1 (stereo not given) | 99% | Dose-dependent effect |  | 21.3% | 19% | 26.2% | 15.8% |  |  |  |  | 220 µM |  |  |  |
| CC(Cc1ccc(O)c(O)c1)C(C)Cc1ccc(O)c(O)c1 (stereo not given) |  |  |  |  | 83% | 81% |  |  |  |  |  |  |  |  |  |
| COc1cc(NC(C)CCCNC(=O)NC(CO)(CO)CO)c2ncccc2c1 (stereo not given) | 86% | Dose-dependent effect | inactive | 22.3% | 40.5% | 28.6% | 24.4% | 24 µM | > 100 µM |  | > 100 µM |  | > 100 µM | > 100 µM |  |
| Cc1c(C)c2c(c(C)c1O)CCC(C)(C(=O)O)O2 (stereo not given) [TROLOX] | 63% |  |  |  |  |  |  |  |  |  |  |  |  |  |  |
| O=C(O)/C=C/c1ccc(O)c(O)c1 |  |  |  |  |  |  |  |  |  |  |  | 600 µM |  |  |  |
| COC(=O)NCCCC(C)Nc1cc(OC)cc2cccnc12 (stereo not given) | 83% | Dose-dependent effect | inactive | 13.8% | 48.8% | 75% | 24.4% | > 100 µM | > 100 µM |  | > 100 µM |  | > 100 µM | > 100 µM |  |
| COc1cc(NC(C)CCCNC(=O)NOCc2ccccc2)c2ncccc2c1 (stereo not given) | 82% | Dose-dependent effect |  | inactive | 38.1% | 11.4% | inactive | 9 µM | 21 µM |  | 20 µM | 230 µM | 14 µM | 12 µM |  |
| COc1cc(NC(C)CCCNC(=O)NO)c2ncccc2c1 (stereo not given) | 69% | Dose-dependent effect |  | 60.6% | 84.5% | 88.1% | 2.2% | 44 µM | > 100 µM |  | 35 µM | 83 µM | 57 µM | > 100 µM |  |
| COc1cc(NC(C)CCCNC(=O)NCCCO)c2ncccc2c1 (stereo not given) | 56% | Dose-dependent effect |  | 27.7% | 33.3% | 28.6% | 12.2% | 31 µM | > 100 µM |  | > 100 µM | 230 µM | > 100 µM | > 100 µM |  |
| COc1cc(N2C(=O)NCCCC2C)c2ncccc2c1 (stereo not given) | 88% | Dose-dependent effect |  | 40% | 57.1% | 48.8% | 30.5% | > 100 µM | > 100 µM |  | > 100 µM | 72 µM | > 100 µM | ≥ 100 µM |  |
| COc1cc(NC(C)CCCNC(=O)NCCCCCO)c2ncccc2c1 (stereo not given) | 63% | Dose-dependent effect |  | inactive | 46.4% | 34.5% | inactive | 44 µM | 2 µM |  | 0.2 µM | 310 µM | 29 µM | 61 µM |  |
| COc1cc(NC(C)CCCNC(=O)N(CCO)CCO)c2ncccc2c1 (stereo not given) | 85% | Dose-dependent effect |  | 7.4% | 11.9% | inactive | 20.7% | 36 µM | > 100 µM |  | > 100 µM | 86 µM | > 100 µM | > 100 µM |  |
| COc1cc(NC(C)CCCNC(=O)NCCO)c2ncccc2c1 (stereo not given) | 81% | Dose-dependent effect |  | 10.6% | 51.2% | 60.7% | 3.7% | 25 µM | > 100 µM |  | > 100 µM | 315 µM | > 100 µM | > 100 µM |  |
| COc1cc(NC(C)CCCNC(=O)NCCNC(=O)NCCCC(C)Nc2cc(OC)cc3cccnc23)c2ncccc2c1 (stereo not given) | 99% | Dose-dependent effect |  | 27.6% | 40.5% | 35.7% | 34.2% | 31 µM | 18 µM |  | 17 µM | 62 µM | 15 µM | 10 µM |  |

From ChEMBL document CHEMBL1153070, “Urea and carbamate derivatives of primaquine: synthesis, cytostatic and antioxidant activities” (Bioorg Med Chem, 2009)
